# Results: ChEMBL document CHEMBL1201862, “PubChem BioAssay data set” (2004)
#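 Following 48 hours of exposure in 96-well plates, responses at five concentrations were used to interpolate endpoints linearly. At the GI50, growth is halved.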 Active and inactive are the calls of the source. Rule as the data show it: active = GI50 up to about 1.1 µM and inactive = higher.
# How the values were obtained:
# Experiment in all cases: inhibition of tumour cell growth, NCI panel, 48 h
# [1] = test system: OVCAR-4
# [2] = test system: OVCAR-3
# [3] = test system: SK-MEL-5
# [4] = test system: SK-MEL-28
# [5] = test system: M14
# [6] = test system: Hs-578T
# [7] = test system: SK-MEL-2
# [8] = test system: EKVX
# [9] = test system: NCI/ADR-RES
# [10] = test system: UACC-257
# [11] = test system: HT-29
# [12] = test system: BT-549
# [13] = test system: HCT-15
# [14] = test system: SF-295
# [15] = test system: SK-OV-3
# [16] = test system: HCT-116
# [17] = test system: A498
# [18] = test system: MDA-MB-231
# [19] = test system: UO-31
# [20] = test system: OVCAR-5
# [21] = test system: PC-3
# [22] = test system: NCI-H23
# [23] = test system: HCC 2998
# [24] = test system: TK-10
# [25] = test system: 786-0
# [26] = test system: T47D
# [27] = test system: MDA-N
# [28] = test system: U-251
# [29] = test system: SW-620
# [30] = test system: MOLT-4
# [31] = test system: RXF 393
# [32] = test system: K562
# [33] = test system: CCRF-CEM
# [34] = test system: SNB-75
# [35] = test system: ACHN
# [36] = test system: HOP-92
# [37] = test system: SN12C
# [38] = test system: IGROV-1
# [39] = test system: SF-268
# [40] = test system: SF-539
# [41] = test system: Malme-3M
# [42] = test system: RPMI-8226
# [43] = test system: SR
# [44] = test system: A549
# [45] = test system: COLO 205
# [46] = test system: UACC-62
# [47] = test system: CAKI-1
# [48] = test system: HOP-62
# [49] = test system: NCI-H226
# [50] = test system: NCI-H522
# [51] = test system: OVCAR-8
# [52] = test system: HL-60
# [53] = test system: NCI-H460
# [54] = test system: MCF7
# [55] = test system: SNB-19
# [56] = test system: DU-145
# [57] = test system: MDA-MB-435
# [58] = test system: KM12
# [59] = test system: LOX IMVI
smiles,measurement,setting,value
O=C1C(O)=C(Cc2ccccc2)C(=O)c2ccccc21,GI50,[1],46.6 µM (inactive)
same,GI50,[2],27.7 µM (inactive)
same,GI50,[3],18.7 µM (inactive)
same,GI50,[4],42.3 µM (inactive)
same,GI50,[5],34.8 µM (inactive)
same,GI50,[6],37.3 µM (inactive)
same,GI50,[7],42 µM (inactive)
same,GI50,[8],55.1 µM (inactive)
same,GI50,[9],49.5 µM (inactive)
same,GI50,[10],46.8 µM (inactive)
same,GI50,[11],48.9 µM (inactive)
same,GI50,[12],70.8 µM (inactive)
same,GI50,[13],35.6 µM
same,GI50,[14],45.3 µM (inactive)
same,GI50,[15],63.5 µM (inactive)
same,GI50,[16],50.6 µM (inactive)
same,GI50,[17],51.6 µM (inactive)
same,GI50,[18],91.2 µM (inactive)
same,GI50,[19],41.6 µM (inactive)
same,GI50,[20],> 100 µM (inactive)
same,GI50,[21],54.5 µM (inactive)
same,GI50,[22],49.1 µM (inactive)
same,GI50,[23],83.2 µM (inactive)
same,GI50,[24],> 100 µM (inactive)
same,GI50,[25],61.7 µM (inactive)
O=c1c2cc(-c3ccccc3)cnc2sn1-c1ccc(Br)cc1,GI50,[1],> 100 µM (inactive)
same,GI50,[26],> 100 µM (inactive)
same,GI50,[2],37 µM (inactive)
same,GI50,[27],> 100 µM (inactive)
same,GI50,[4],> 100 µM (inactive)
same,GI50,[28],> 100 µM (inactive)
same,GI50,[29],> 100 µM (inactive)
same,GI50,[30],> 100 µM (inactive)
same,GI50,[5],> 100 µM (inactive)
same,GI50,[31],> 100 µM (inactive)
same,GI50,[32],> 100 µM (inactive)
same,GI50,[33],95.5 µM (inactive)
same,GI50,[34],> 100 µM (inactive)
same,GI50,[35],> 100 µM (inactive)
same,GI50,[36],> 100 µM (inactive)
same,GI50,[7],> 100 µM (inactive)
same,GI50,[37],> 100 µM (inactive)
same,GI50,[38],58.1 µM (inactive)
same,GI50,[8],> 100 µM (inactive)
same,GI50,[9],> 100 µM (inactive)
same,GI50,[10],> 100 µM (inactive)
same,GI50,[39],> 100 µM (inactive)
same,GI50,[40],> 100 µM (inactive)
same,GI50,[11],> 100 µM (inactive)
same,GI50,[41],51.8 µM (inactive)
same,GI50,[42],> 100 µM (inactive)
same,GI50,[43],> 100 µM (inactive)
same,GI50,[12],> 100 µM (inactive)
same,GI50,[13],88.9 µM
same,GI50,[44],> 100 µM (inactive)
same,GI50,[45],> 100 µM (inactive)
same,GI50,[46],> 100 µM (inactive)
same,GI50,[14],> 100 µM (inactive)
same,GI50,[15],> 100 µM (inactive)
same,GI50,[16],> 100 µM (inactive)
same,GI50,[17],> 100 µM (inactive)
same,GI50,[47],> 100 µM (inactive)
same,GI50,[18],> 100 µM (inactive)
same,GI50,[48],> 100 µM (inactive)
same,GI50,[49],> 100 µM (inactive)
same,GI50,[19],> 100 µM (inactive)
same,GI50,[20],> 100 µM (inactive)
same,GI50,[21],> 100 µM (inactive)
same,GI50,[50],47.5 µM (inactive)
same,GI50,[22],> 100 µM (inactive)
same,GI50,[23],> 100 µM (inactive)
same,GI50,[51],> 100 µM (inactive)
same,GI50,[52],> 100 µM (inactive)
same,GI50,[53],> 100 µM (inactive)
same,GI50,[54],> 100 µM (inactive)
same,GI50,[55],> 100 µM (inactive)
same,GI50,[56],> 100 µM (inactive)
same,GI50,[57],> 100 µM (inactive)
same,GI50,[25],> 100 µM (inactive)
same,GI50,[58],> 100 µM (inactive)
CC(=O)NNC(=S)N/C=C1/C(=O)C=C(C)OC1=O,GI50,[1],> 100 µM (inactive)
same,GI50,[26],> 100 µM (inactive)
same,GI50,[2],> 100 µM (inactive)
same,GI50,[27],> 100 µM (inactive)
same,GI50,[3],> 100 µM (inactive)
same,GI50,[4],> 100 µM (inactive)
same,GI50,[28],> 100 µM (inactive)
same,GI50,[29],> 100 µM (inactive)
same,GI50,[30],> 100 µM (inactive)
same,GI50,[5],> 100 µM (inactive)
same,GI50,[34],> 100 µM (inactive)
same,GI50,[35],> 100 µM (inactive)
same,GI50,[36],> 100 µM (inactive)
same,GI50,[7],> 100 µM (inactive)
same,GI50,[37],> 100 µM (inactive)
same,GI50,[38],> 100 µM (inactive)
same,GI50,[8],> 100 µM (inactive)
same,GI50,[9],> 100 µM (inactive)
same,GI50,[10],> 100 µM (inactive)
same,GI50,[40],> 100 µM (inactive)
same,GI50,[11],> 100 µM (inactive)
same,GI50,[12],> 100 µM (inactive)
same,GI50,[13],> 100 µM
same,GI50,[44],> 100 µM (inactive)
same,GI50,[45],> 100 µM (inactive)
same,GI50,[14],> 100 µM (inactive)
same,GI50,[15],> 100 µM (inactive)
same,GI50,[16],> 100 µM (inactive)
same,GI50,[47],> 100 µM (inactive)
same,GI50,[18],> 100 µM (inactive)
same,GI50,[48],> 100 µM (inactive)
same,GI50,[49],> 100 µM (inactive)
same,GI50,[19],> 100 µM (inactive)
same,GI50,[20],> 100 µM (inactive)
same,GI50,[21],> 100 µM (inactive)
same,GI50,[22],> 100 µM (inactive)
same,GI50,[23],> 100 µM (inactive)
same,GI50,[51],> 100 µM (inactive)
same,GI50,[52],> 100 µM (inactive)
same,GI50,[53],> 100 µM (inactive)
same,GI50,[54],> 100 µM (inactive)
same,GI50,[24],> 100 µM (inactive)
same,GI50,[55],> 100 µM (inactive)
same,GI50,[59],> 100 µM (inactive)
same,GI50,[56],> 100 µM (inactive)
same,GI50,[57],> 100 µM (inactive)
same,GI50,[25],> 100 µM (inactive)
same,GI50,[58],> 100 µM (inactive)
